# The source made the active and inactive calls.
# Key:
# [1] = target: T1, Fructose-bisphosphate aldolase (Mycobacterium tuberculosis, UniProt P9WQA3); experiment: Fluorescence-based biochemical high throughput dose response assay for inhibitors of the fructose-bisphosphate aldolase (FBA) of M. tuberculosis.; assay type: functional
# T1 sequence (P9WQA3 whole entry): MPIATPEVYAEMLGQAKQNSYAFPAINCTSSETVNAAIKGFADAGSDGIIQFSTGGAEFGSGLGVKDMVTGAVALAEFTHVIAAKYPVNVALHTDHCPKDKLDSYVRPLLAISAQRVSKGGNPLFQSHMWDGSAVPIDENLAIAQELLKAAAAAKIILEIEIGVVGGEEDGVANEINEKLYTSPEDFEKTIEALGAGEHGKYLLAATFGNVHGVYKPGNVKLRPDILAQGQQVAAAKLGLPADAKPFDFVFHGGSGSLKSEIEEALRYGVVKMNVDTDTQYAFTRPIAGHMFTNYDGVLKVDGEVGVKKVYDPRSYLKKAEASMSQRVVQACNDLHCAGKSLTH
# [2] = A549 cell cytotoxicity, dose response, cytotoxicity control, plate reader, cherry-pick, antagonist series (AID 743412); assay type: functional, cell-based
# [3] = LGR2 antagonists, dose response, cell-based, HEK293, CRE-luciferase reporter, cherry pick, set 2 (AID 743343); assay type: functional;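 also: transfected cells were stimulated with diluted bursicon conditioned medium after compound addition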
# [4] = MC4R antagonists, dose response, counter-screen for LGR2 antagonist project, cell-based, plate reader, cherry pick (AID 743444); assay type: functional;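 also: transfected HEK 293 cells stimulated with alpha-MSH peptide; potency of inhibitors of the alpha-MSH evoked signal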
# Protein skinhead-1 = target: T2, Protein skinhead-1 (Caenorhabditis elegans, UniProt P34707); assay type: functional
# T2 sequence (P34707 whole entry): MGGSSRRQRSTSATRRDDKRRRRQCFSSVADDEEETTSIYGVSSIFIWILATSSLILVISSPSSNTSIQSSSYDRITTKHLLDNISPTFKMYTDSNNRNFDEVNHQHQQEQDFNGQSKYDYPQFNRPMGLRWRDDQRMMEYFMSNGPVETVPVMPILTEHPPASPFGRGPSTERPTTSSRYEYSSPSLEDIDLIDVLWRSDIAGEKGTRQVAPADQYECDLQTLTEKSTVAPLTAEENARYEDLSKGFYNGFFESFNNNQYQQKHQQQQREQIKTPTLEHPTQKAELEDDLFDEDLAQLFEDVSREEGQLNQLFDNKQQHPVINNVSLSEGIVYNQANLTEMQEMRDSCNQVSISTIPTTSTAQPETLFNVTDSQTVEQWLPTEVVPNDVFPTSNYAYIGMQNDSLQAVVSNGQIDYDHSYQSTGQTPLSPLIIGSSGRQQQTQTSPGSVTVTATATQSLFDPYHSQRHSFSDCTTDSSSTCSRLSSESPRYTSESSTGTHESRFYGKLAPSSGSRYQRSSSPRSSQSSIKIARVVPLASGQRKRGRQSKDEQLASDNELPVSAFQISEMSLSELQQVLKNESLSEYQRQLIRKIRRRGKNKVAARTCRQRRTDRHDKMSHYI
# [5] = HEK293T cytotoxicity, dose response, cytotoxicity control for miR-122 modulator project, cell-based, inhibitor set, cherry-pick, set 2 (AID 720697); assay type: functional
# cells [6] = assay type: functional, cell-based
# cells [7] = assay type: functional, cell-based; remark: listed apart in the source
# [8] = target: T3, Oxysterols receptor LXR-beta (Homo sapiens, UniProt P55055); assay type: functional, cell-based;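 also: agonist activity at LXR measured by a cell-based luminescence readout across a dose range, run as a counterscreen for daf-12 agonists; HEK293 cells with Gal4-LXR fusion and GAL4-driven luciferase reporter; potency for activation of Gal4-LXR reporter so compounds are agonists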
# T3 sequence (P55055 whole entry): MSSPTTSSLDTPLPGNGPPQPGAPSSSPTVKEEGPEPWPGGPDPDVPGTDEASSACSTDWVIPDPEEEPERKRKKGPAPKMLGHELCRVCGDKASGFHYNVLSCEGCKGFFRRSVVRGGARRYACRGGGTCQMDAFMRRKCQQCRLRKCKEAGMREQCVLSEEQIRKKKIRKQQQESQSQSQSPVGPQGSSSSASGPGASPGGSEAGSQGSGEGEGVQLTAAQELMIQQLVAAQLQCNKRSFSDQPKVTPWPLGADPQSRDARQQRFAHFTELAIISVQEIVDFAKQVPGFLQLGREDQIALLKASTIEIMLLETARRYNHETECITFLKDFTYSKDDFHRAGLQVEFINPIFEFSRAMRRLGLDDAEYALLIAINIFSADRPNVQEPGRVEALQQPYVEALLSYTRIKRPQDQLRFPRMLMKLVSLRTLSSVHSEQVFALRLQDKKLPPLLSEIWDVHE
# [9] = Luminescence-based cell-based high throughput dose response assay to identify activators of the DAF-12 from the parasite S. stercoralis (ssDAF-12).; assay type: functional
# [10] = Counterscreen for inhibitors of Trypanosoma brucei methionyl tRNA synthetase (MetRS): Luminescence-based cell-based high throughput dose response assay to identify compounds that are cytotoxic to Jurkat human T lymphocyte cells.; assay type: functional
# [11] = target: T4, Methionyl-tRNA synthetase, putative (Trypanosoma brucei brucei, UniProt Q38C91); assay type: functional, Trypanosoma brucei brucei strain 927/4 GUTat10.1
# T4 sequence (Q38C91 whole entry): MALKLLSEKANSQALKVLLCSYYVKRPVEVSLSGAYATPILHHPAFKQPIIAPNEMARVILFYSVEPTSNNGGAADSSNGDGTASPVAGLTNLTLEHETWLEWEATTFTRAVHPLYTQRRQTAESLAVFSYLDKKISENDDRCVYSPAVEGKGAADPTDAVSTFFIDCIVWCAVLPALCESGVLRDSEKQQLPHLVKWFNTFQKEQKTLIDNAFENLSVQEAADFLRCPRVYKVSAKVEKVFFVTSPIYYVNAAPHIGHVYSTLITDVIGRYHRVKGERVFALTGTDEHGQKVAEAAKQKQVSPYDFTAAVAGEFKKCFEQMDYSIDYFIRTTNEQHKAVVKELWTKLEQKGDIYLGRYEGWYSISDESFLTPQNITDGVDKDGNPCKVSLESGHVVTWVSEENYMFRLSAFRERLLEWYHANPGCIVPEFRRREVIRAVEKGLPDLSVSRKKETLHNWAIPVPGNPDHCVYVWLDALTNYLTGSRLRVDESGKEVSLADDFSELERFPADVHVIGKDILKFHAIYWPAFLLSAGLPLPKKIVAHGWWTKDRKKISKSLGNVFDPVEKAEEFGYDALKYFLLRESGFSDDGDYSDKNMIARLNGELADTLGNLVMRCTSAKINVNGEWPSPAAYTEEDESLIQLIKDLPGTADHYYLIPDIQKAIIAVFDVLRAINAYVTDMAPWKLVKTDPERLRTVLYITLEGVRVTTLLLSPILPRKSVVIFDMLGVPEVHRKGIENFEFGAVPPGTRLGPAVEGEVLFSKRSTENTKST
# [12] = target: T4, Methionyl-tRNA synthetase, putative; assay type: functional, Trypanosoma brucei brucei strain 927/4 GUTat10.1; remark: listed apart in the source
# [13] = miR-122 activators in hepatoma reporter cells, dose response, cell-based, Huh7 psiCHECK-miR122, Renilla luciferase, cherry-picked (AID 651956); assay type: functional;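 also: huh7 hepatoma cells stably carrying a psiCHECK-2 miR-122 sensor plasmid; renilla luciferase signal reporting endogenous miR-122 activity after 48 h compound exposure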
compound,measurement,setting,value
COc1ccc2oc(=N)c(-c3nnc4n3CCCCC4)cc2c1,IC50,[1],4.68 µM (active)
COc1ccc(-c2cc(C(=O)Nc3cccc(O)c3)no2)cc1,AC50,[2],> 52 µM (inactive)
same,AC50,[3],9.77 µM (active)
same,AC50,[4],7.86 µM (active)
COc1ccc(CNCCC(c2ccc(OC)cc2)c2ccccc2OC)cc1 (configuration not stated),IC50,Protein skinhead-1,> 100 µM (inactive)
same,AC50,[5],3.94 µM (active)
COc1ccccc1CCNCc1cc2c(cc1[N+](=O)[O-])OCO2,IC50,cells [6],> 29.9 µM (inactive)
same,EC50,cells [7],> 29.9 µM (inactive)
Cc1ccc(SCCSc2ncccn2)cc1,EC50,[8],> 67.5 µM (inactive)
Cc1cc(OCC(=O)NCC(O)c2ccccc2)c2c(C)cc(=O)oc2c1 (configuration not stated),IC50,[1],1.26 µM (active)
CC(=O)c1ccc2c3c(cccc13)C(=O)N(CCc1ccccc1)C2=O,IC50,cells [6],> 29.9 µM (inactive)
same,EC50,cells [7],> 29.9 µM (inactive)
same,IC50,[9],> 67.5 µM (inactive)
COc1ccc2c(c1)cc(C(=O)N[C@@H](Cc1ccccc1)C(=O)N[C@@H](C)C(=O)O)n2C,IC50,[1],1.29 µM (active)
CN(C(=O)CSc1nc2cc(Cl)ccc2[nH]1)C1CCS(=O)(=O)C1 (configuration not stated),IC50,[10],83.2 µM (inactive)
CN(C(=O)CSc1nc2ccc(Cl)cc2[nH]1)C1CCS(=O)(=O)C1 (configuration not stated),IC50,[11],64.5 µM (inactive)
same,IC50,[12],21.7 µM (inactive)
OC(c1cccc(Cl)c1)c1nc(-c2ccc3ccccc3c2)c[nH]1 (configuration not stated),IC50,[11],14.2 µM (inactive)
same,IC50,[10],83.3 µM (inactive)
same,IC50,[12],5.6 µM (active)
Cc1cccc(NC(=O)Nc2ccc3c(c2)C(=O)N(C)[C@@H]2CC[C@@H](CC(=O)NCc4ccccc4Cl)O[C@H]2CO3)c1,AC50,[13],3.32 µM (active)
Cc1noc(C)c1NC(=O)N(C)C[C@@H]1Oc2cc(C#CCC3CCCC3)ccc2S(=O)(=O)N([C@@H](C)CO)C[C@@H]1C,AC50,[13],18.9 µM (active)
